The text below walks through data of article PMC11876601 (Molecular Systems Biology, 2025).

In one assay the test system is TNK2. The settings on record: cited from earlier work.
For the next assay, the system named is MAPK10. To be noted: cited from earlier work.
The next assay deals with 13 PDAC cell lines. Kind of assay: Phenotypic drug combination viability screen (ATPlite, 72 h), cell line panel. Type of assay: cell-based, human. The settings on record: for number of cell lines with synergy with GEM: of 13 cell lines, Bliss model; for EC50: Homo sapiens.
The test system of the next assay is PANC-1 cells. In words: Cell proliferation assay, GEM + ATR inhibitor (Incucyte confluence, 72 h). To be noted: for EC50: Homo sapiens, experiment GEM (GEM alone, in the series of the ATRi named in column Drug); for Response: ATRi 0 nM (GEM), R1-R3.
The test system of the next assay is Suit2-07 cells. Described as above. To be noted: for EC50: Homo sapiens, experiment GEM (GEM alone, in the series of the ATRi named in column Drug); for Response: R1, in % (unit assumed). Type of assay: cell-based, human.
[1] abbreviates: TNK2, 5 cell line mix lysate, Kinobeads ε, ref Reinecke et al. (2023).
Where [2] appears, read: MAPK10, 5 cell line mix lysate, Kinobeads ε, ref Reinecke et al. (2023).
Where [3] appears, read: PANC-1, experiment GEM (GEM alone), plateau of fitted curve, ratio drug/vehicle confluence.

Values joined by “and” are separate entries in the source; they are usually repeats but may differ in a detail not shown here. Identical values can stand only once. Like-named read-outs stand apart in the source and are kept apart here. A value given as a limit tells only on which side of the number the result lay.
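Throughout, for Curve bottom: PANC-1 confluence at 72 h taken as raw values, not normalized to starting confluence, with each experiment run in triplicate.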
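Throughout, for Curve top: PANC-1 confluence at 72 h taken as raw values, not normalized to starting confluence, with each experiment run in triplicate.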

Experimental for PANC-1 cells: (§1) Cells were seeded at 5000 cells/well into 96-well flat bottom plates (Eppendorf) and allowed to attach overnight. […] Cells were incubated for 72 h at 37 °C and 5% CO2. Cell confluence readouts at 72 h were either normalized to their initial confluence using the Incucyte software (AsPC-1) or used without prior normalization (all others). […] Each experiment was performed in triplicates, the data was plotted as mean ± standard deviation (s.d.).
Experimental for Suit2-07 cells: as §1

With `COc1cc(N2CCC(N3CCN(C)CC3)CC2)ccc1Nc1ncc(Cl)c(Nc2ccccc2P(C)(C)=O)n1` [Brigatinib], the EC50 with TNK2 (setting [1]) was 5.93 nM; in the assay with MAPK10 (setting [2]), 789 nM. Also, the pKDapp on TNK2 (setting [1]) is 8.57; on MAPK10 (setting [2]), 6.18. Further, the Kd at TNK2 (TNK2, 5 cell line mix lysate, Kinobeads ε, ref Reinecke et al. (2023), read-out: KDapp) was 2.67 nM; at MAPK10 (MAPK10, 5 cell line mix lysate, Kinobeads ε, ref Reinecke et al. (2023), read-out: KDapp) it was 663 nM. Besides, the “number of cell lines with synergy with GEM” value in the assay on 13 PDAC cell lines is given as 5 cell lines.
With `C[C@]12O[C@H](C[C@]1(O)CO)n1c3ccccc3c3c4c(c5c6ccccc6n2c5c31)CNC4=O` [Lestaurtinib], the EC50 with TNK2 (TNK2, 4 cell line mix lysate, Kinobeads y, ref Klaeger et al. (2017)) was […]; with MAPK10 (MAPK10, 4 cell line mix lysate, Kinobeads y, ref Klaeger et al. (2017)) it was 33.2 nM. Moreover, the “number of cell lines with synergy with GEM” value in the assay on 13 PDAC cell lines was 5 cell lines.
Consider `Nc1ccn([C@@H]2O[C@H](CO)[C@@H](O)C2(F)F)c(=O)n1` [GEM, Gemcitabine], for which the EC50 was 5.84e-08 M with PANC-1 cells (PANC-1, PANC-1, replicates R1-R3); 5.89e-08 M in the assay with PANC-1 cells (PANC-1, read-out: pEC50, PANC-1 (converted), -log10 of EC50 [M]); 8.32e-09 M in the assay with Suit2-07 cells (72 h, Suit2-07, -log10 of EC50 [M], read-out: pEC50 (converted)); 8.26e-09 M in the assay on Suit2-07 cells (72 h, Suit2-07, mean (one replicate), read-out: EC50 mean); 8.26e-09 M in the assay with Suit2-07 cells (72 h, Suit2-07, replicate R1, read-out: EC50); 1.05e-08 M in the assay with Suit2-07 cells (Suit2-07, -log10 of EC50 [M], read-out: pEC50 (converted)). Moreover, the figures for the EC50 in the assay with 13 PDAC cell lines (read-out: EC50,GEM) and in the assay with 13 PDAC cell lines (read-out: EC50) were < 10 nM and ≥ 1 nM, respectively. Also, the Response is 55.73 and 93.02 and 87.94 with PANC-1 cells (PANC-1, GEM 1 nM); 54.62 and 89.30 and 88.72 in the assay with PANC-1 cells (PANC-1, GEM 3 nM); 65.10 and 93.01 and 80.93 with PANC-1 cells (PANC-1, GEM 10 nM); 43.73 and 76.60 and 68.58 in the assay with PANC-1 cells (PANC-1, GEM 30 nM); 45.56 and 60.97 and 63.22 with PANC-1 cells (PANC-1, GEM 300 nM); 38.26 and 66.03 and 59.27 in the assay with PANC-1 cells (PANC-1, GEM 1000 nM). Besides, the Response in the assay on PANC-1 cells (PANC-1, GEM 3000 nM) was 35.94 and 56.55 and 61.30; in the assay with Suit2-07 cells (Suit2-07, GEM 1 nM, ATRi 0 nM (GEM)) it was 97.46; with Suit2-07 cells (Suit2-07, GEM 3 nM, ATRi 0 nM (GEM)), 93.41; in the assay on Suit2-07 cells (Suit2-07, GEM 10 nM, ATRi 0 nM (GEM)), 45.15; with Suit2-07 cells (Suit2-07, GEM 30 nM, ATRi 0 nM (GEM)), 20.11; in the assay with Suit2-07 cells (Suit2-07, GEM 3000 nM, ATRi 0 nM (GEM)), 10.86. Moreover, the Response in the assay on Suit2-07 cells (Suit2-07, experiment GEM, GEM 1 nM, ATRi 0 nM) was 98.60 and 97.96 and 97.60; in the assay on Suit2-07 cells (Suit2-07, experiment GEM, GEM 3 nM, ATRi 0 nM) it was 96.04 and 96.69 and 98.44; with Suit2-07 cells (Suit2-07, experiment GEM, GEM 10 nM, ATRi 0 nM), 49.03 and 57.12 and 55.81; with Suit2-07 cells (Suit2-07, experiment GEM, GEM 30 nM, ATRi 0 nM), 23.93 and 25.24 and 25.44; in the assay on Suit2-07 cells (Suit2-07, experiment GEM, GEM 100 nM, ATRi 0 nM), 15.01; in the assay on Suit2-07 cells (Suit2-07, experiment GEM, GEM 300 nM, ATRi 0 nM), 14.46. The Response with Suit2-07 cells (Suit2-07, experiment GEM, GEM 1000 nM, ATRi 0 nM) turned out to be 10.89; in the assay on Suit2-07 cells (Suit2-07, experiment GEM, GEM 3000 nM, ATRi 0 nM), 10.34. Besides, the Curve bottom with PANC-1 cells (setting [3]) was 1.02 and 1.05 and 1.06 and 0.91 and 1.00 and 0.98. The Curve top in the assay with PANC-1 cells (setting [3]) was found to be 0.74.
